Reference: the kinase profiling compilation of Christmann-Franck et al. (2016)

Tests used:
Assay in all cases: radiometric filter-binding kinase assay, Kinase HotSpot
Settings in all cases: compound 0.5 µM; ATP 10 µM
EPHB3 (human) = EPHB3 (human) (UniProt P54753)
AURKA (human) = AURKA (human) (UniProt O14965)
CLK4 (human) = CLK4 (human) (UniProt Q9HAZ1)
MAPKAPK3 (human) = MAPKAPK3 (human) (UniProt Q16644)
CSNK2A1 (human) = CSNK2A1 (human) (UniProt P68400)
NEK11 (human) = NEK11 (human) (UniProt Q8NG66)
WEE1 (human) = WEE1 (human) (UniProt P30291)
RPS6KB2 (human) = RPS6KB2 (human) (UniProt Q9UBS0)
RPS6KB2 (human), sequence (Q9UBS0 whole entry, looked up): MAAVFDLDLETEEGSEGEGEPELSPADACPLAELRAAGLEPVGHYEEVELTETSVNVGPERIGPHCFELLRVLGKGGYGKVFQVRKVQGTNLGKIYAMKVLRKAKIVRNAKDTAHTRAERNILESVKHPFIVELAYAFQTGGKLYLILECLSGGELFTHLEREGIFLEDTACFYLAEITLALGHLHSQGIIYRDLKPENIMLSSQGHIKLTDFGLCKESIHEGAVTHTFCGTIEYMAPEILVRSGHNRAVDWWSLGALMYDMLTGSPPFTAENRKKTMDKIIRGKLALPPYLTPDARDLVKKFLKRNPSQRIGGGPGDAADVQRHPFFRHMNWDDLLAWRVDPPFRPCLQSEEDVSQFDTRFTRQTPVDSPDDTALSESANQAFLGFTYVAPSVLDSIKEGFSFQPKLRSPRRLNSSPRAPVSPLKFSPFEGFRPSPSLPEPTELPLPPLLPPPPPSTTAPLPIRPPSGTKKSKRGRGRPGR

PRKCE (human) = PRKCE (human) (UniProt Q02156)
ULK2 (human) = ULK2 (human) (UniProt Q8IYT8)
ACVRL1 (human) = ACVRL1 (human) (UniProt P37023)
ACVRL1 (human), sequence (P37023 whole entry, looked up): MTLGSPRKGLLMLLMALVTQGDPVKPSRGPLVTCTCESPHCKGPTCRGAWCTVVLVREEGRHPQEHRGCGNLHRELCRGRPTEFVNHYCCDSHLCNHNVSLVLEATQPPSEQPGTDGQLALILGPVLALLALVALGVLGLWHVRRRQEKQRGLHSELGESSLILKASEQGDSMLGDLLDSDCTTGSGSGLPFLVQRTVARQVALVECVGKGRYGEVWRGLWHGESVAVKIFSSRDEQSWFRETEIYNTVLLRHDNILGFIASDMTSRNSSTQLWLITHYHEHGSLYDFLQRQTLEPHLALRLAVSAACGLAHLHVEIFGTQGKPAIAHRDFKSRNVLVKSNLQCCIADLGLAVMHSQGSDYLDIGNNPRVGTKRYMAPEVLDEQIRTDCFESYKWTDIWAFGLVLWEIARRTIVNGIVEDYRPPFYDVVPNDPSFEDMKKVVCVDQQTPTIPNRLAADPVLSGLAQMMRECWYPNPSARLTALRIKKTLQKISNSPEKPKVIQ

WNK2 (human) = WNK2 (human) (UniProt Q9Y3S1)
MAP3K9 (human) = MAP3K9 (human) (UniProt P80192)
HIPK2 (human) = HIPK2 (human) (UniProt Q9H2X6)
CDK2 CCNA2 (human) = CDK2 CCNA2 (human) (UniProt P24941+P20248)
RPS6KA3 KD1 KD2 (human) = RPS6KA3 KD1 KD2 (human) (UniProt P51812)
SRMS (human) = SRMS (human) (UniProt Q9H3Y6)
FGFR4 (human) = FGFR4 (human) (UniProt P22455)
GRK4 (human) = GRK4 (human) (UniProt P32298)
ROS1 (human) = ROS1 (human) (UniProt P08922)
ULK1 (human) = ULK1 (human) (UniProt O75385)
GRK6 (human) = GRK6 (human) (UniProt P43250)
EPHA1 (human) = EPHA1 (human) (UniProt P21709)
ERBB2 (human) = ERBB2 (human) (UniProt P04626)
CDK1 CCNB1 (human) = CDK1 CCNB1 (human) (UniProt P06493+P14635)
CSNK2A2 (human) = CSNK2A2 (human) (UniProt P19784)
CSNK2A2 (human), sequence (P19784 whole entry, looked up): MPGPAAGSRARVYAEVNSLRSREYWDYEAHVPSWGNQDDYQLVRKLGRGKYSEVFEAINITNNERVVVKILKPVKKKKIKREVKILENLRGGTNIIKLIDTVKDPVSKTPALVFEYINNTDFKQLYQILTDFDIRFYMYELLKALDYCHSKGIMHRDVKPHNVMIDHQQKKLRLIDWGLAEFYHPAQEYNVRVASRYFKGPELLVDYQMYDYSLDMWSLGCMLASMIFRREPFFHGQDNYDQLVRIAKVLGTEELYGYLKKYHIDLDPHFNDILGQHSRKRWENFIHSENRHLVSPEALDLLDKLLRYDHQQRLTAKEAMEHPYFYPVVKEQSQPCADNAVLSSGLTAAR

PIM1 (human) = PIM1 (human) (UniProt P11309)
PIM1 (human), sequence (P11309 whole entry, looked up): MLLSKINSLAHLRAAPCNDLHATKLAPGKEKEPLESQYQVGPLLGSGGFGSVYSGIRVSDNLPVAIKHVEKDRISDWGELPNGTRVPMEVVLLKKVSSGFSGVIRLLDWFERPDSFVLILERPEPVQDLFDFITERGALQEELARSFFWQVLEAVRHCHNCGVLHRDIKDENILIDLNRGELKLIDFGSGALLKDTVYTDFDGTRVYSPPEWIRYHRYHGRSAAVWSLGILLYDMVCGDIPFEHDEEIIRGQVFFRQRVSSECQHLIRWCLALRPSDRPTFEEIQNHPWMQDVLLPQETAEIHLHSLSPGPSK

CDK5 CDK5R1 p25 (human) = CDK5 CDK5R1 p25 (human) (UniProt Q00535+Q15078)
PKN2 (human) = PKN2 (human) (UniProt Q16513)
NUAK2 (human) = NUAK2 (human) (UniProt Q9H093)
CDK4 CCND3 (human) = CDK4 CCND3 (human) (UniProt P30281+P11802)
TBK1 (human) = TBK1 (human) (UniProt Q9UHD2)
EPHA2 (human) = EPHA2 (human) (UniProt P29317)
EPHA2 (human), sequence (P29317 whole entry, looked up): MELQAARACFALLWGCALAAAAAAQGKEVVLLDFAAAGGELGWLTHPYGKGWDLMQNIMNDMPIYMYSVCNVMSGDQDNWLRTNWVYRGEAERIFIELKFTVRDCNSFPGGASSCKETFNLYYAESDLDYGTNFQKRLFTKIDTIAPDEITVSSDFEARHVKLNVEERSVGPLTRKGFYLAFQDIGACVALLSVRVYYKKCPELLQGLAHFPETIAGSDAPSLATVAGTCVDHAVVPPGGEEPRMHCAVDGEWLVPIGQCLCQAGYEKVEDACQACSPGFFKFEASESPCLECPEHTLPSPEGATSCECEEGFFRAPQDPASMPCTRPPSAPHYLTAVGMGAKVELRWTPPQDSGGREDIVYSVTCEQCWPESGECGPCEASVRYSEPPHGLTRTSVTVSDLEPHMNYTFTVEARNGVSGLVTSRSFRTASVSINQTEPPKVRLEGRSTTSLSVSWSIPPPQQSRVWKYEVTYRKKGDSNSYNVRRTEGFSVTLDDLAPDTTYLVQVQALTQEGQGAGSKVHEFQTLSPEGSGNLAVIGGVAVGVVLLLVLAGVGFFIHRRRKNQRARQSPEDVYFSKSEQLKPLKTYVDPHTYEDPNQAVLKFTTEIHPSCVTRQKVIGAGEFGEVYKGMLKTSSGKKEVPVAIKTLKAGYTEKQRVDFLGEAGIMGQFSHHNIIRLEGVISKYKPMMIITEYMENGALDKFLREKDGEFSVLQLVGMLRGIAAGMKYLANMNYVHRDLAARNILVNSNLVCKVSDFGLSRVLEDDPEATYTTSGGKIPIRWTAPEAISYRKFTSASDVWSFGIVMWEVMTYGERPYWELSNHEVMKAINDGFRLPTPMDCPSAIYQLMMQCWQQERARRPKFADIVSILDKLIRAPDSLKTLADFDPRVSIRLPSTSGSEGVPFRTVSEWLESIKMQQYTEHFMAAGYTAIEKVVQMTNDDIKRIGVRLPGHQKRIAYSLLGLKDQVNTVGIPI

HCK (human) = HCK (human) (UniProt P08631)
SRPK2 (human) = SRPK2 (human) (UniProt P78362)
SRPK2 (human), sequence (P78362 whole entry, looked up): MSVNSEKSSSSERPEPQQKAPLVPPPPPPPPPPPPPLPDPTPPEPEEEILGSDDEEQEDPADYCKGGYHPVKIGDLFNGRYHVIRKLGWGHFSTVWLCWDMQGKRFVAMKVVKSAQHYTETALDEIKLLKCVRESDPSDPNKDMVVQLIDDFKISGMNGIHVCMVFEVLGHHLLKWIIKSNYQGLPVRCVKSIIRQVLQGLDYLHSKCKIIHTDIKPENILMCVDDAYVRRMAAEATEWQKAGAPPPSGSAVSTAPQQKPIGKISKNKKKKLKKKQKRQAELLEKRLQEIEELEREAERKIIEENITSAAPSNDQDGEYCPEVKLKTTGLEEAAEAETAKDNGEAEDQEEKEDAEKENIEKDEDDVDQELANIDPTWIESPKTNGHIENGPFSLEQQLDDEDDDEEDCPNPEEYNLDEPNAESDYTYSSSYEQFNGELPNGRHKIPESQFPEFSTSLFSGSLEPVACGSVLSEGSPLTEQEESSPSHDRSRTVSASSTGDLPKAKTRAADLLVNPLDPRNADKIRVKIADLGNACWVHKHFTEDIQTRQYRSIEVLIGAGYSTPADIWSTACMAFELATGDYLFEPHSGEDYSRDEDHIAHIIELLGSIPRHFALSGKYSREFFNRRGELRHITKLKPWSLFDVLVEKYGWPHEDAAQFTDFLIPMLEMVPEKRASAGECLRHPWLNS

RPS6KA4 KD2 (human) = RPS6KA4 KD2 (human) (UniProt O75676)
PNCK (human) = PNCK (human) (UniProt Q6P2M8)
NTRK1 (human) = NTRK1 (human) (UniProt P04629)
VRK1 (human) = VRK1 (human) (UniProt Q99986)
VRK1 (human), sequence (Q99986 whole entry, looked up): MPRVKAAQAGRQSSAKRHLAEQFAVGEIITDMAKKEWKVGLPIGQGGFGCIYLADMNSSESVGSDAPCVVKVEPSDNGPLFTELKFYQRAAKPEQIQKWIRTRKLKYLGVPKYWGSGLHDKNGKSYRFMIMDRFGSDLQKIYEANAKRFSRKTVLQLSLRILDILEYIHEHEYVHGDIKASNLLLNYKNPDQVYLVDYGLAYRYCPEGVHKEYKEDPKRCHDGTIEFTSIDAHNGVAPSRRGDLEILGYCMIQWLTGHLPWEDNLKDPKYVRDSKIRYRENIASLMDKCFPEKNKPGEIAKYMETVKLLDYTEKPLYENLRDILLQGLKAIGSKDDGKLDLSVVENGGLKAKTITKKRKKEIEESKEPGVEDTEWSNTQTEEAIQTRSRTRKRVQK

MET (human) = MET (human) (UniProt P08581)
[1] = tested on: FLT4 (human), P35916 [Q890H]

MAPKAPK3 (human), sequence (Q16644 whole entry, looked up): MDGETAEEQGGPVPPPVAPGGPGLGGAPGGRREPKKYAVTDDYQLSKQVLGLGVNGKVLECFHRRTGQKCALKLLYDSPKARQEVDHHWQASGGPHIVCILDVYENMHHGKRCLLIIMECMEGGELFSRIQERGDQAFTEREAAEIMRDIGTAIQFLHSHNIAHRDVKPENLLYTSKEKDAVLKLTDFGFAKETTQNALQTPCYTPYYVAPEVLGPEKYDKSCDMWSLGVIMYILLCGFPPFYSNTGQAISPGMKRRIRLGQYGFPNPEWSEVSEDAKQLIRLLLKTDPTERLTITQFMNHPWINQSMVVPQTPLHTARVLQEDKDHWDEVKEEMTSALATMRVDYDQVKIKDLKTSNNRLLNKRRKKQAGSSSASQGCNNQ
AURKA (human), sequence (O14965 whole entry, looked up): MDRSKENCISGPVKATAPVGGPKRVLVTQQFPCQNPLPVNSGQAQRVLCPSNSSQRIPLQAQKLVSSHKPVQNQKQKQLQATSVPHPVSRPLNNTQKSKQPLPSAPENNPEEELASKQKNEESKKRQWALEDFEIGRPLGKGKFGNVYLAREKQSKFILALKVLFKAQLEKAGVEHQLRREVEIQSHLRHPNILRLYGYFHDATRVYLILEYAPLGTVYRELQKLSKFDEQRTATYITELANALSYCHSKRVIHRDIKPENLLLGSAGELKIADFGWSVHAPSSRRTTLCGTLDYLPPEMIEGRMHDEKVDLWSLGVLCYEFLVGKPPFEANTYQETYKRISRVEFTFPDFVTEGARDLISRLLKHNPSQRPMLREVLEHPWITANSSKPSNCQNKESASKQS
CSNK2A1 (human), sequence (P68400 whole entry, looked up): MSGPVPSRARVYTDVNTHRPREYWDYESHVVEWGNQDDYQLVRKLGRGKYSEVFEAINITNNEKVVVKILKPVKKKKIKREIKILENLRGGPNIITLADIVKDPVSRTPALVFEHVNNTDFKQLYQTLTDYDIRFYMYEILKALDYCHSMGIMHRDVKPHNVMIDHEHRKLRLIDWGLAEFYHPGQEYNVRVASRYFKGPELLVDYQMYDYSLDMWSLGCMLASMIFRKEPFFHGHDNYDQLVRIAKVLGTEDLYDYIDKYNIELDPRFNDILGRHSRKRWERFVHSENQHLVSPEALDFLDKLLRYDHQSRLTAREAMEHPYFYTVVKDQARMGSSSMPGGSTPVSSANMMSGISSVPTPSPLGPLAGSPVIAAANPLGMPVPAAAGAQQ

O=C(c1cc2cc(O)ccc2[nH]1)c1cc2cc(O)ccc2[nH]1
residual activity (EPHB3 (human)): 92.3% | residual activity (AURKA (human)): 71.6% | residual activity (CLK4 (human)): 79.1% | residual activity (MAPKAPK3 (human)): 91.2% | residual activity (CSNK2A1 (human)): 88.7% | residual activity (NEK11 (human)): 96.7% | residual activity (WEE1 (human)): 90.6% | residual activity (RPS6KB2 (human)): 102% | residual activity (PRKCE (human)): 119% | residual activity (ULK2 (human)): 94.5% | residual activity (ACVRL1 (human)): 98.4% | residual activity (WNK2 (human)): 96.6% | residual activity (MAP3K9 (human)): 42.6% | residual activity (HIPK2 (human)): 102% | residual activity (CDK2 CCNA2 (human)): 61.5% | residual activity (RPS6KA3 KD1 KD2 (human)): 37.7% | residual activity (SRMS (human)): 93.7% | residual activity (FGFR4 (human)): 92.8% | residual activity (GRK4 (human)): 103% | residual activity (ROS1 (human)): 105% | residual activity (ULK1 (human)): 60.1% | residual activity (GRK6 (human)): 102% | residual activity (EPHA1 (human)): 81.1% | residual activity (ERBB2 (human)): 113% | residual activity (CDK1 CCNB1 (human)): 60.5% | residual activity (CSNK2A2 (human)): 78.8% | residual activity (PIM1 (human)): 76.1% | residual activity (CDK5 CDK5R1 p25 (human)): 52.6% | residual activity (PKN2 (human)): 97.1% | residual activity (NUAK2 (human)): 95.7% | residual activity (CDK4 CCND3 (human)): 105% | residual activity (TBK1 (human)): 35% | residual activity (EPHA2 (human)): 101% | residual activity (HCK (human)): 51.2% | residual activity (SRPK2 (human)): 97.1% | residual activity (RPS6KA4 KD2 (human)): 81.3% | residual activity (PNCK (human)): 105% | residual activity (NTRK1 (human)): 57.2% | residual activity (VRK1 (human)): 85.3% | residual activity (MET (human)): 89.2% | residual activity [1]: 67.1%

N#Cc1c[nH]c2c[nH]/c(=N\Cc3cccnc3)cc2/c1=N\c1ccc(F)c(Cl)c1
residual activity (EPHB3 (human)): 98.5% | residual activity (AURKA (human)): 98.1% | residual activity (CLK4 (human)): 63.3% | residual activity (MAPKAPK3 (human)): 94% | residual activity (CSNK2A1 (human)): 95.9% | residual activity (NEK11 (human)): 87.1% | residual activity (WEE1 (human)): 74.3% | residual activity (RPS6KB2 (human)): 99.5% | residual activity (PRKCE (human)): 101% | residual activity (ULK2 (human)): 102% | residual activity (ACVRL1 (human)): 96.9% | residual activity (WNK2 (human)): 91.1% | residual activity (MAP3K9 (human)): 87.5% | residual activity (HIPK2 (human)): 93.2% | residual activity (CDK2 CCNA2 (human)): 75.1% | residual activity (RPS6KA3 KD1 KD2 (human)): 99.1% | residual activity (SRMS (human)): 104% | residual activity (FGFR4 (human)): 92.6% | residual activity (GRK4 (human)): 98.8% | residual activity (ROS1 (human)): 98.3% | residual activity (ULK1 (human)): 76.1% | residual activity (GRK6 (human)): 106% | residual activity (EPHA1 (human)): 94.5% | residual activity (ERBB2 (human)): 91.7% | residual activity (CDK1 CCNB1 (human)): 84.6% | residual activity (CSNK2A2 (human)): 75.2% | residual activity (PIM1 (human)): 92.7% | residual activity (CDK5 CDK5R1 p25 (human)): 78.3% | residual activity (PKN2 (human)): 85.9% | residual activity (NUAK2 (human)): 135% | residual activity (CDK4 CCND3 (human)): 101% | residual activity (TBK1 (human)): 83.4% | residual activity (EPHA2 (human)): 102% | residual activity (HCK (human)): 92.5% | residual activity (SRPK2 (human)): 101% | residual activity (RPS6KA4 KD2 (human)): 92% | residual activity (PNCK (human)): 99.8% | residual activity (NTRK1 (human)): 96.2% | residual activity (VRK1 (human)): 99.2% | residual activity (MET (human)): 94.9% | residual activity [1]: 96.2%

CN(C)c1ccc(/C=C2\C(=O)Nc3ccccc32)cc1
residual activity (EPHB3 (human)): 94.9% | residual activity (AURKA (human)): 104% | residual activity (CLK4 (human)): 94.1% | residual activity (MAPKAPK3 (human)): 100% | residual activity (CSNK2A1 (human)): 89.7% | residual activity (NEK11 (human)): 96.4% | residual activity (WEE1 (human)): 88.6% | residual activity (RPS6KB2 (human)): 101% | residual activity (PRKCE (human)): 92.6% | residual activity (ULK2 (human)): 97.1% | residual activity (ACVRL1 (human)): 104% | residual activity (WNK2 (human)): 104% | residual activity (MAP3K9 (human)): 90.2% | residual activity (HIPK2 (human)): 106% | residual activity (CDK2 CCNA2 (human)): 102% | residual activity (RPS6KA3 KD1 KD2 (human)): 92.6% | residual activity (SRMS (human)): 97.9% | residual activity (FGFR4 (human)): 97.4% | residual activity (GRK4 (human)): 103% | residual activity (ROS1 (human)): 94.9% | residual activity (ULK1 (human)): 91.9% | residual activity (GRK6 (human)): 102% | residual activity (EPHA1 (human)): 93.7% | residual activity (ERBB2 (human)): 91% | residual activity (CDK1 CCNB1 (human)): 94.1% | residual activity (CSNK2A2 (human)): 98.6% | residual activity (PIM1 (human)): 101% | residual activity (CDK5 CDK5R1 p25 (human)): 102% | residual activity (PKN2 (human)): 98.9% | residual activity (NUAK2 (human)): 94.3% | residual activity (CDK4 CCND3 (human)): 98.9% | residual activity (TBK1 (human)): 98.4% | residual activity (EPHA2 (human)): 107% | residual activity (HCK (human)): 110% | residual activity (SRPK2 (human)): 100% | residual activity (RPS6KA4 KD2 (human)): 95.2% | residual activity (PNCK (human)): 102% | residual activity (NTRK1 (human)): 96.6% | residual activity (VRK1 (human)): 89% | residual activity (MET (human)): 101% | residual activity [1]: 98.8%
